This note sets out measurements from patent US4347252A, “Rodenticidal 1-(3,5-bistrifluoromethylphenyl)-3-(4-t-butylpiperidino)prop-1-yne” (priority 1980, dated 1982).

Each structure is given as a SMILES string.

One data set has as its system mice (laboratory strain). The experiment in a line: Acute Oral Toxicity in Mice (Laboratory Strain). Type of data set: in vivo. How it is done:
Acute Oral Toxicity in Mice (Laboratory Strain)
Groups of mice were dosed orally with graded doses of the test compound in aqueous suspension and observed until there had been no deaths for at least three days. The acute oral LD50, that is to say the dose in mg/kg animal body weight necessary to kill 50% of the mice, was determined from the numbers of animals for each dose which died during the observation period by reference to published tables.

As for `CC(C)(C)C1CCN(CC#Cc2cc(C(F)(F)F)cc(C(F)(F)F)c2)CC1` [Compound of formula I as free base, 1-(3,5-bistrifluoromethylphenyl)-3-(4-tert-butylpiperidino)prop-1-yne], in the data set on rodents (in vivo), the “major symptom of toxicity” value is “sedation is the major symptom of toxicity” and the “manner of death of treated animals” value is “die quietly, without exhibiting signs of distress”. Besides, in the data set on rodents (vs anticoagulant rodenticides), the “period of delay between ingestion and death compared with anticoagulant rodenticides” value was “shorter”. Besides, in the data set with rodents (vs strains which do not possess this resistance), the “toxicity to strains of rodents resistant to anticoagulant rodenticides” value was “equally as toxic”. Besides, the “LD50 (acute oral)” value in the data set on mice (laboratory strain) (aqueous suspension) came to 68 mg/kg animal body weight. Moreover, the “Observations: signs of poisoning” value with mice (laboratory strain) (prior to death / after dosing) is “Some signs of poisoning”.
